Test results as given in publication PMC11903733 (Frontiers in Pharmacology, 2025).

Key:
[1] = tested on: MV-4-11 cells; experiment: MTS cell proliferation assay; format: cell-based; conditions: Homo sapiens, MV4-11, LSD1-addicted MV-4-11 leukemia cells, 72 h
Protocol: (§1) The myeloid leukemia cell lines MV-4-11, MOLT-4, MOLM-16, HL-60, and the human B lymphocyte cell line […] were purchased from the American Type Culture Collection (ATCC, Manassas, VA, United States). The myeloid leukemia cell line HAL-01 was obtained from the Deutsche Sammlung von Mikroorganismen und Zellkulturen GmbH (DSMZ, Braunschweig, Germany). All cells were cultured in IMDM or RPMI -1640 medium supplemented with 10% FBS, 100 U/mL penicillin, and 100 μg/mL streptomycin. The cells were maintained in a humidified incubator with an atmosphere of 5% CO2 at 37°C.
(§2) The in vitro anti-proliferative activity of the compounds was determined using the CellTiter 96® AQueous NonRadioactive Cell Proliferation Assay Kit (Promega, Madison, United States) as previously described ([Ji et al., 2017]). In brief, 5–10 × 10^3 cells and 180 μL of medium were first seeded into each well of a 96-well plate. Subsequently, the cells were exposed to either 0.2% Dimethyl sulfoxide (DMSO, Aladdin Reagent, Shanghai, China) or a serial dilution of the compounds, prepared from a 10 mM stock solution in DMSO, with the final concentration of DMSO being 0.2% for 72 h. 20 μL of MTS reagent was added to each well, and the culture was incubated in the dark at 37°C for 4 h. Finally, the optical density (OD) was then recorded at 490 nm and 690 nm using a microplate reader from Molecular Devices. The proliferation inhibition rate was calculated according to the following formula: inhibition ratio = (OD of DMSO treated wells - OD of compound treated wells)/(OD of DMSO treated wells - OD of blank wells) × 100%. The IC50 values of the compounds inhibiting cell proliferation were calculated using GraphPad Prism 10 (GraphPad Software Inc., San Diego, CA).

[2] = tested on: RPMI-8226 cells; experiment: MTS cell proliferation assay; format: cell-based; conditions: Homo sapiens, LSD1-non-sensitive RPMI-8226 cells, 72 h
Protocol: as §1, §2

[3] = tested on: HAL-01; experiment: MTS cell proliferation assay; format: cell-based; conditions: Homo sapiens, growth inhibition after 72 h
Protocol: as §1, §2
(§3) ^aIC50 (μM) is the concentration of compound needed to reduce cell growth by 50% after 72 h treatment with LTM-1.

[4] = tested on: HL-60; experiment: MTS cell proliferation assay; format: cell-based; conditions: Homo sapiens, growth inhibition after 72 h
Protocol: as §1, §2, §3

[5] = tested on: MOLM-16; experiment: MTS cell proliferation assay; format: cell-based; conditions: MOLM16; growth inhibition after 72 h
Protocol: as §1, §2, §3

[6] = tested on: MOLT-4; experiment: MTS cell proliferation assay; format: cell-based; conditions: Homo sapiens, growth inhibition after 72 h
Protocol: as §1, §2, §3

[7] = biological target: 60 different kinases; experiment: SelectScreen kinase profiling, whole panel; format: biochemical; conditions: ten-point dilution 0.25 μM to 128 μM; read-out: IC50 against each of the 60 evaluated kinases
Protocol: (§4) The kinase selectivity analysis of LTM-1 was performed utilizing the SelectScreen Kinase Profiling Service offered by Thermo Fisher Scientific. In a dose-response assay featuring a ten-point dilution series from 0.25 μM to 128 μM, the inhibitory effects of LTM-1 on substrate phosphorylation reactions catalyzed by a panel of kinases were assessed. Consequently, the half-maximal inhibitory concentrations (IC50 values) for each kinase were determined.

[8] = tested on: MOLT-4, MOLM-16, HAL-01, and HL-60; experiment: MTS cell proliferation assay, other AML cell lines together; format: cell-based; conditions: range over MOLT-4, MOLM-16, HAL-01, HL-60; read-out: IC50 across other AML cell lines
Protocol: as §1
The in vitro anti-proliferative activity of the compounds was determined using the CellTiter 96® AQueous NonRadioactive Cell Proliferation Assay Kit (Promega, Madison, United States) as previously described ([Ji et al., 2017]). In brief, 5–10 × 10^3 cells and 180 μL of medium were first seeded into each well of a 96-well plate. […] Finally, the optical density (OD) was then recorded at 490 nm and 690 nm using a microplate reader from Molecular Devices. […] The IC50 values of the compounds inhibiting cell proliferation were calculated using GraphPad Prism 10 (GraphPad Software Inc., San Diego, CA).

[9] = biological target: ABL1 (Homo sapiens, UniProt P00519); experiment: SelectScreen kinase profiling; format: biochemical
Protocol: as §4

[10] = biological target: ABL2 (Homo sapiens, UniProt P42684); experiment: SelectScreen kinase profiling; format: biochemical
Protocol: as §4

[11] = biological target: ALK (Homo sapiens, UniProt Q9UM73); experiment: SelectScreen kinase profiling; format: biochemical
Protocol: as §4

[12] = biological target: BMX (Homo sapiens, UniProt P51813); experiment: SelectScreen kinase profiling; format: biochemical
Protocol: as §4

[13] = biological target: CDK13 (Homo sapiens, UniProt Q14004); experiment: SelectScreen kinase profiling; format: biochemical
Protocol: as §4

[14] = biological target: CDK19 (Homo sapiens, UniProt Q9BWU1); experiment: SelectScreen kinase profiling; format: biochemical
CDK19, sequence (Q9BWU1 whole entry): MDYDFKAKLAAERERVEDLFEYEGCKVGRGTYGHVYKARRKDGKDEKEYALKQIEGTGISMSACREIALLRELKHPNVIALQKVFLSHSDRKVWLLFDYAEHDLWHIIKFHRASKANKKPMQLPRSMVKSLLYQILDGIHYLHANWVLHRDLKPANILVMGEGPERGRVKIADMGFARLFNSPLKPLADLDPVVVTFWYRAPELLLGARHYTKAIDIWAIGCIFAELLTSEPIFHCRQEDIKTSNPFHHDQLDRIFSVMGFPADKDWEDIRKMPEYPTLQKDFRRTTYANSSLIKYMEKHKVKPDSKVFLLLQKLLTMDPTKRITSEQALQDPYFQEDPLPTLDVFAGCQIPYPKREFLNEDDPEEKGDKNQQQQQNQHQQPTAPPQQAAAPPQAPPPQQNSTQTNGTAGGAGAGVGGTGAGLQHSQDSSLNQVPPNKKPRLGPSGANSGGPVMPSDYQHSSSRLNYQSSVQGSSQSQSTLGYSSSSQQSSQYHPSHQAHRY
CDK19, sequence (P24863 whole entry partner): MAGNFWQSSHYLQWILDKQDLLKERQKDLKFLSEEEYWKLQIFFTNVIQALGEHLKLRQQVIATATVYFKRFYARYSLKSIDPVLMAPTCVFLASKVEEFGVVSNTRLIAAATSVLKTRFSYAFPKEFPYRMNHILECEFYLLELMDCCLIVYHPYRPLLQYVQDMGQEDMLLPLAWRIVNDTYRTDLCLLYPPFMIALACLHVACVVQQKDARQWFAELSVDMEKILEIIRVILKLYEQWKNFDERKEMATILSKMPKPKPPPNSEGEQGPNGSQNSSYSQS
Protocol: as §4

[15] = biological target: CDK2 (Homo sapiens, UniProt P24941); experiment: SelectScreen kinase profiling; format: biochemical
Protocol: as §4

[16] = biological target: CSF1R (Homo sapiens, UniProt P07333); experiment: SelectScreen kinase profiling; format: biochemical
Protocol: as §4

[17] = biological target: EPHB3 (Homo sapiens, UniProt P54753); experiment: SelectScreen kinase profiling; format: biochemical
Protocol: as §4

[18] = biological target: FES (Homo sapiens, UniProt P07332); experiment: SelectScreen kinase profiling; format: biochemical
Protocol: as §4

[19] = biological target: FRK (Homo sapiens, UniProt P42685); experiment: SelectScreen kinase profiling; format: biochemical
Protocol: as §4

[20] = biological target: FYN (Homo sapiens, UniProt P06241); experiment: SelectScreen kinase profiling; format: biochemical
Protocol: as §4

[21] = biological target: JAK1 (Homo sapiens, UniProt P23458); experiment: SelectScreen kinase profiling; format: biochemical
Protocol: as §4

[22] = biological target: KDR (Homo sapiens, UniProt P35968); experiment: SelectScreen kinase profiling; format: biochemical
Protocol: as §4

[23] = biological target: KIT (Homo sapiens, UniProt P10721); experiment: SelectScreen kinase profiling; format: biochemical
KIT, sequence (P10721 26-976): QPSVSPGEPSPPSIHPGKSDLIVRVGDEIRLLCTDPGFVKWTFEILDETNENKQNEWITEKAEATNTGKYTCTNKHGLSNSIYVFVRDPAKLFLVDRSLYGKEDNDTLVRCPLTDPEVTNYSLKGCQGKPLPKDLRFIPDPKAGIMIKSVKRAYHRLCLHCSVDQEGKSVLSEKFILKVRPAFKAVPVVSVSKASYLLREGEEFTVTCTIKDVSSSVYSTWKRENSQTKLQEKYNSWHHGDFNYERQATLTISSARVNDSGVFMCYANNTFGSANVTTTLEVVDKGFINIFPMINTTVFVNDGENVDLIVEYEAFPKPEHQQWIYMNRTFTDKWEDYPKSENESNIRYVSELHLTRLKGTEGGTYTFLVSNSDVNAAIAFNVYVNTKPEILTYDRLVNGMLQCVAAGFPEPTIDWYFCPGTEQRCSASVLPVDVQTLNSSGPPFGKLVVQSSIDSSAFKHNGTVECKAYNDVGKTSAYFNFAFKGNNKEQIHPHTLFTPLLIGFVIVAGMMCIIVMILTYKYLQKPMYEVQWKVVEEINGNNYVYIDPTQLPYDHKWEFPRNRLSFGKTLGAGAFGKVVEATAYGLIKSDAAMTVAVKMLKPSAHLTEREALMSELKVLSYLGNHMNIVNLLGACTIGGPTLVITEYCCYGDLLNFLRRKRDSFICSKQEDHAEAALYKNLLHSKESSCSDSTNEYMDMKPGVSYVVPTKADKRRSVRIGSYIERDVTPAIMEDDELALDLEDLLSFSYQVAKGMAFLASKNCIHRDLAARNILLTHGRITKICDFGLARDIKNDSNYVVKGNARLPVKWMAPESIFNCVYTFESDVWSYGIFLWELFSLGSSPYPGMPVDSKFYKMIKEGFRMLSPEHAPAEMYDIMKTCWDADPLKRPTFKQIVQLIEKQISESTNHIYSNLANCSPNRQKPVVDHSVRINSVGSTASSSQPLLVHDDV
Protocol: as §4

[24] = biological target: LTK (Homo sapiens, UniProt P29376); experiment: SelectScreen kinase profiling; format: biochemical
Protocol: as §4

[25] = biological target: NTRK1 (Homo sapiens, UniProt P04629); experiment: SelectScreen kinase profiling; format: biochemical
NTRK1, sequence (P04629 33-796): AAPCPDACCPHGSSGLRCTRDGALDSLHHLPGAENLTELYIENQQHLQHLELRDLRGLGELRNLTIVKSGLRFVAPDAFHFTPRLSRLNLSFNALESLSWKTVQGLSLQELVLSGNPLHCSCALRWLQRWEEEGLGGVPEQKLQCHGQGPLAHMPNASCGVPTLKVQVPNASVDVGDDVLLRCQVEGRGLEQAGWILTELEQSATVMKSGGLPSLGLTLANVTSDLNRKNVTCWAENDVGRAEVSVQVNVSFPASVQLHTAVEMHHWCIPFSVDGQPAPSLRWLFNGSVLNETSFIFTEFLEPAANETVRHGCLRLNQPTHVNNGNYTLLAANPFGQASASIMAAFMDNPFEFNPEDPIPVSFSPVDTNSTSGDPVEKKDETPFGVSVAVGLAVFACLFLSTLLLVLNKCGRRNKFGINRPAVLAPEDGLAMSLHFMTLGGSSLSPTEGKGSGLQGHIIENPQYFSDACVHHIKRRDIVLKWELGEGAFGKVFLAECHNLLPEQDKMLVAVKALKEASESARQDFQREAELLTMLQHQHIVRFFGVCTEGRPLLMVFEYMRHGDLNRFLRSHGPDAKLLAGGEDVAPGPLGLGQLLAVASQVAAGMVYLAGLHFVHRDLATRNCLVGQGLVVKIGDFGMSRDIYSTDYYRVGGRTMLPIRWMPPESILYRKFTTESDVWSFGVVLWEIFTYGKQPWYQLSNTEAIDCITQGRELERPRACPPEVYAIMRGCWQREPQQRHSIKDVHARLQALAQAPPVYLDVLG
Protocol: as §4

[26] = biological target: PDGFRB (Homo sapiens, UniProt P09619); experiment: SelectScreen kinase profiling; format: biochemical
PDGFRB, sequence (P09619 33-1106): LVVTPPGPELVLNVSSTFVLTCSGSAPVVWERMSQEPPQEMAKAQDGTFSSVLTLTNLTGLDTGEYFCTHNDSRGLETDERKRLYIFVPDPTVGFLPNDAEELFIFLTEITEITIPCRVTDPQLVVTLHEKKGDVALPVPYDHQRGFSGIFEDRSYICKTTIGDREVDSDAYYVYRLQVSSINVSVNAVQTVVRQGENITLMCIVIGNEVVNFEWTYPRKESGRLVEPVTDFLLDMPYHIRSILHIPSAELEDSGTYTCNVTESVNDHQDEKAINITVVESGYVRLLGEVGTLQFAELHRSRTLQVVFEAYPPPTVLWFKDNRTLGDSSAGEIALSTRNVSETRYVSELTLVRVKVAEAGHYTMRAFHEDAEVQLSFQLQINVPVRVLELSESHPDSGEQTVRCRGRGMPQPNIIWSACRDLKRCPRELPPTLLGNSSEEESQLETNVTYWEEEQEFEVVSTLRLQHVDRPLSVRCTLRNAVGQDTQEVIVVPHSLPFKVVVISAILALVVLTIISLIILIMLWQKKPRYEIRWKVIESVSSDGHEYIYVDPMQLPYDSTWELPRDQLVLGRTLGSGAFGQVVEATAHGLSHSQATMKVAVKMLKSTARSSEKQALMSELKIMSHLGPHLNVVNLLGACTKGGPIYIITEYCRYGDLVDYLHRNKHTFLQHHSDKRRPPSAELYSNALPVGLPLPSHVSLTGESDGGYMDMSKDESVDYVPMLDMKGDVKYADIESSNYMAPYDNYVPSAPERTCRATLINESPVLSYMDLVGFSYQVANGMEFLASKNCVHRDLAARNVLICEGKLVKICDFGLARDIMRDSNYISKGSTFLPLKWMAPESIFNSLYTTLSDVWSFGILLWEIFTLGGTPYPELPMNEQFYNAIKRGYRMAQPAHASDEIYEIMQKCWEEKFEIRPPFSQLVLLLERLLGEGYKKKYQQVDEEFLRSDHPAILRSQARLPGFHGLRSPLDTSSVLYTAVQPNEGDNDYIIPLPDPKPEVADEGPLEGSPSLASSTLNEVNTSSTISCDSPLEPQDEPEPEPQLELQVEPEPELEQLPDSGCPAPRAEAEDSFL
Protocol: as §4

[27] = biological target: PIM1 (Homo sapiens, UniProt P11309); experiment: SelectScreen kinase profiling; format: biochemical
PIM1, sequence (P11309 whole entry): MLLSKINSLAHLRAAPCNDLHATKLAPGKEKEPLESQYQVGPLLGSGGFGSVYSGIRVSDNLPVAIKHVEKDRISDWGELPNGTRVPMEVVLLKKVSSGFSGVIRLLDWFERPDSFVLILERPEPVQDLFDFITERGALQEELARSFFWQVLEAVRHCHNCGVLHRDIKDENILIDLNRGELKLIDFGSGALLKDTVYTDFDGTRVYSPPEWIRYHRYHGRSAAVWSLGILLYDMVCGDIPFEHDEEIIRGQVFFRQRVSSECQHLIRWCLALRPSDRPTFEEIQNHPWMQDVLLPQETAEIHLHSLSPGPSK
Protocol: as §4

[28] = biological target: PLK1 (Homo sapiens, UniProt P53350); experiment: SelectScreen kinase profiling; format: biochemical
Protocol: as §4

[29] = biological target: ROS1 (Homo sapiens, UniProt P08922); experiment: SelectScreen kinase profiling; format: biochemical
Protocol: as §4

[30] = biological target: ZAK (Homo sapiens, UniProt Q9NYL2); experiment: SelectScreen kinase profiling; format: biochemical
ZAK, sequence (Q9NYL2 whole entry): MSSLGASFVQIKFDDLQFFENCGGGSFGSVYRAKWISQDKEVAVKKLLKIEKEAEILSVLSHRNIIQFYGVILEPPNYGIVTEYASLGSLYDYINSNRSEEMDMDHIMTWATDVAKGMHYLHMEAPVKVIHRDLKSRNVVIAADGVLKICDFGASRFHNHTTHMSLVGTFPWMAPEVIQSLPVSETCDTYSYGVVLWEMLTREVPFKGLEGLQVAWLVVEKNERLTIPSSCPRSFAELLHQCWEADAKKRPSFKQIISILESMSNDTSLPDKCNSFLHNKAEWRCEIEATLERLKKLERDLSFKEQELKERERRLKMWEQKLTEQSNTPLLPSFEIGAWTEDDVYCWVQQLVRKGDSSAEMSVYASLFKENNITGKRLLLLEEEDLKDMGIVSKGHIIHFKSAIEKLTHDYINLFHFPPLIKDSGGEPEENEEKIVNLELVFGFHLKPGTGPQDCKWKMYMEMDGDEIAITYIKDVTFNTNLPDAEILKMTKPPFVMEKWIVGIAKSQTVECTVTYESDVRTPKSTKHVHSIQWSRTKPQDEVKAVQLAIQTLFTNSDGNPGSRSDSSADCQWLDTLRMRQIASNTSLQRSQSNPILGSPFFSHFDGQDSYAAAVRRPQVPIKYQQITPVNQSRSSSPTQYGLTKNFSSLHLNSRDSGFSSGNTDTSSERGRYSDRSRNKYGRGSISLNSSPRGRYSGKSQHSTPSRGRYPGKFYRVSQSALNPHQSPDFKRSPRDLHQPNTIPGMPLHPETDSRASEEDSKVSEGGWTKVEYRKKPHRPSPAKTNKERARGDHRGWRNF
Protocol: as §4

Measured: IC50

O=S(=O)(c1ccc(C(O)CO)c(C(F)(F)F)c1)N1CCc2cc(C3CC3NCC3CCNCC3)ccc21 (stereo not drawn) [LTM-1]
0.19 to 0.39 µM: [8]
0.39 ± 0.03 µM: [4]
0.16 ± 0.01 µM: [1]
> 10 µM: [7] | [9] | [10] | [11] | [12] | [13] | [14] | [15] | [16] | [17] | [18] | [19] | [20] | [21] | [22] | [23] | [24] | [25] | [26] | [27] | [28] | [29] | [30]
> 100 µM: [2]
0.27 ± 0.02 µM: [5]
0.25 ± 0.01 µM: [3]
0.19 ± 0.01 µM: [6]
